We go through six compounds from patent US7166744B2, “Retinoid derivatives and methods for producing said compounds and anti-cancer pharmaceutical composition comprising said compounds” (Chebigen Co., Ltd., priority 2001, dated 2007).

The IC50 is the concentration at which inhibition is half-maximal.

“Also recorded” adds a separate entry of the source. Bounds are passed on as bounds.

Type in all cases: cell-based
In experiment [1] the test system is PARP (poly(ADP-ribose)polymerase) and CPP32 (caspase-3) cleavage in HCT 116 cells. In words: Western blotting of PARP and CPP32 cleavage. The conditions noted are these: 5 μM. Here is the method: FIG. 6 is the cleavage results of PARP and CPP-32, by a Western blotting analysis, derived from colon cancer cells HCT 116 to which the respective retinoid derivatives were treated.
(§1) By DAPI (4,6-diamidino-2-phenylindole) staining assay for staining DNA in cellular nucleus, nuclear condensation and fragmentation, characteristic features of apoptosis, were observed. […] In FIG. 4, the control represents non-treated cells. The sub-G1 DNA contents of colon cancer HTC116 cells and breast cancer MCF-7 cells were measured by FACS (Fluorescence-Activated Cell Sorter) assay to quantify the apoptosis (FIG. 5). Finally, in order to further characterize the apoptosis observed in retinoid derivative-treated cells, the cleavage of apoptosis-related proteins, including PARP (poly(ADP-ribose)polymerase) and CPP32 (caspase-3) by Western blotting. […] PARP cleavage occurred in a time-dependent manner, in parallel with the induction of apoptosis (FIG. 6B). C in FIG. 6 represents the result of Western blotting of non-treated cells.
In general terms: Immunoblotting shows a protein as a band on a membrane.

The test system of another experiment is 2774 ovary cancer cells. In words: MTT proliferation assay, 2774. The note with it: 48 hours, ovarian cancer. On the procedure: (§2) The effects of test compounds on proliferation of various cancer cells was examined by 3-(4,5-dimethylthiazol-2-yl)-2,5-diphenyltetrazolium bromide (MTT, Sigma) assay in a dose dependent manner. In the MTT assay, colon, liver, cervix, ovary, and breast cancer cell lines were treated with test compounds at various concentrations. Living cancer cells reduce MTT to dark blue MTT formazan that would be measured by absorbance.
(§3) Colon cancer cells, HCT116, DLD-1 and HT29, cervix cancer cells, HeLa and CaSki, ovary cancer cells, SKOV-3, 2774 and OVCAR-3, liver cancer cells, SK-Hep-1, PLCPRF5 and HepG2, and breast cancer cells, ZR75-1 and MDA-MB 231 were seeded at an initial density of 3000 cells per well in 96-well plates. After attachment of cells to the walls of the wells, the medium containing fresh retinoid was treated with various concentrations (0.5 μM, 1 μM, 2.5 μM, 5 μM, 10 μM) for 48 hours. 50 μl of MTT solution (2 mg/ml in PBS) was added to cell culture media. The reaction micture was incubated at 37° C. in a 5% CO2 atmosphere for 4 hours. The supernatant was removed and 150 μl of DMSO was added. The optical density was measured spectrophotometrically at 550 nm. […] For other retinoid derivatives according to the present invention, absorbances were measured by this procedure and IC50 values, concentrations required for 50% growth inhibition, were determined.

Experiment [2] has as its system MDA-MB-231 breast cancer cells. In words: MTT proliferation assay, MDA-MB-231. On the procedure: as §2, §3
In general terms: Tetrazolium dyes change colour on reduction, which living cells bring about.

Experiment [3] deals with HCT116 colon cancer cells. In words: DAPI staining of nuclei, HCT116. The note with it: for nuclear condensation and fragmentation (DAPI): HCT116, 5 μM, 36 h; for nuclear condensation (DAPI): HCT116, Experimental Example 8. Here is the method:
as §1
Meanwhile, HPR which is a precursor during the synthesis process of KCBG60 is known to induce apoptosis. Considering that the cells aggregated into small spherical mass upon treatment with KCBG60, KCBG60 is expected to induce apoptosis. In order to confirm apoptosis induced by KCBG60 once again, KCBG60-treated HCT116 cells were stained with DAPI and observed for nuclear condensation, an indicative of apoptosis (FIG. 12).

A further experiment relates to MMP-3 mRNA expression. In words: RT-PCR of MMP-3 mRNA in HCT116. The note with it: HCT116, 1 μM, 36 hours. Here is the method: Previously, it was shown that the synthetic retinoid derivatives inhibit the transcriptional activity of AP-1. Also, it is well known that MMP (matrix metalloproteinase), a main target gene of AP-1 is involved in metastasis of cancer cells. Therefore, the inhibitive effects of the retinoid derivatives on metastasis of cancer was examined by RT-PCR analysis. Colon cancer HCT116 cells were treated with 1 μM retinoid for 36 hours. RNA was isolated from the cells and mRNA expression levels of MMP-1, -2 and -3 were analyzed by RT-PCR. […] As the control, GAPDH was used and it was confirmed that its expression was not affected by retinoid. Meanwhile, the expression level of MMP-3 was affected weakly by KCBG40, intermediately by KCBG41 but strongly by KCBG10 (FIG. 9).

Experiment [4] concerns RAR subfamilies (RARα, RARβ, RARγ). In words: CAT ELISA reporter assay of retinoid receptors (Experimental Example 4). Here is the method: As the reporter gene, chloramphenicol acetyltransferase (CAT) gene was used. […] The colon cancer cells were plated at 10^6 in 6-well. At next day, the mixture of DNA (2 μg) and SuperFect reagent was added to the cells. After overnight transfection, the media were exchanged with fresh media containing retinoid at various concentrations for 24 hours and washed with cold 1×PBS. The cells were collected, suspended in 100 μl of 0.25M Tris-HCl (pH 7.6) and lysed by 3 freezing-thawing cycles. After centrifugation (12,000×g, 10 min, 4° C.), 100 μl of the supernatant was recovered. 10 μl of the recovered supernatant was tested for activity of β-galactosidase according to standard prosedures (Sambrook et al., 1989) and 50 μl of the recovered supernatant were tested for activity of the reporter by the CAT ELISA (Boeringer Mannheim, Germany) method. The obtained data for activity of the reporter was normalized with respect to β-gal activity for comparison.
(An ELISA detects its analyte on a solid surface through an enzyme-linked reagent.)

For experiment [5], the system named is HCT116 colon cancer cells. In words: Optical microscopy of treated cells, HCT116. The note with it: HCT116, 5 μM, 48 hours, compared to HPR. On the procedure: Both colon cancer HCT116 cells and breast cancer MCF-7 cells were treated with 5 μM of the retinoid derivatives KCBG10 and KCBG41 for 48 hours, and photographed by optical microscope (×200). As a control compound, HPR was used at the same concentration. In FIG. 2, the control represents non-treated cells.

Experiment [6] has as its system cancer cells. In words: Acridine orange / ethidium bromide double staining. The note with it: 10 μM, 96 hours. An excerpt: Therefore, the anti-proliferation effect of KCBG60 is due to the induction of apoptosis.
In experiment [7] the test system is SK-Hep-1 liver cancer cells. In words: Trypan blue surviving cell count, SK-HEP-1. From the text:
(§4) Surviving cells, which had not be stained by trypan blue were counted and the results are shown in Table 3 as relative surviving cells (%).

The next experiment relates to DLD-1 colon cancer cells. In words: Trypan blue surviving cell count, DLD-1.
Description: as §4

Experiment [8] has as its system cancer cells. In words: FACS analysis of DNA content. The note with it: 10 μM, 96 hours. An excerpt: In order to quantitatively determine the levels of apoptosis, the cells treated with the same conditions as above were subjected to FACS analysis to measure DNA contents (FIG. 11).

Take `CCCC(=O)Oc1cc(O)ccc1NC(=O)/C=C(C)/C=C/C=C(C)/C=C/C1=C(C)CCCC1(C)C` [KCBG10, 2.2-[(2E,4E,6E,8E)-3,7-Dimethyl-9-(2,6,6-trimethylcyclohex-1-enyl)-nona-2,4,6,8-tetraenoylamino]-5-hydroxyphenylbutanoate]: in experiment [1], the “cleavage of PARP and CPP32 (Western blotting)” value is recorded as “induced the cleavage of the proteins”. The IC50 in the experiment with 2774 ovary cancer cells worked out at 8 µM; in experiment [2] (48 hours) it was 3.5 µM. For the same compound, the “nuclear condensation and fragmentation (DAPI)” value in [3] is given as “largely showed nuclear fragmentation”. The “effect on MMP-3 mRNA expression level” value in the experiment with MMP-3 mRNA expression is “strongly”. For the same compound, in experiment [4] (concentration dependence), the “retinoid receptor activity (CAT reporter)” value was “did not have activity at a low concentration but showed an increase of activity as the concentration increased”. The “number of viable cancer cells (microscopy)” value in [5] is reported as “significant reductions in the number of viable cancer cells”.

For the compound `CCCC(=O)Nc1cc(NC(=O)/C=C(C)/C=C/C=C(C)/C=C/C2=C(C)CCCC2(C)C)ccc1O` [KCBG41, (2E,4E,6E,8E)-[3,7-dimethyl-9-(2,6,6-trimethylcyclohex-1-enyl)-nona-2,4,6,8-tetraenoylamino]-(3-butyrylamino-4-hydroxy)phenylamide], the “cleavage of PARP and CPP32 (Western blotting)” value in experiment [1] is “induced the cleavage of the proteins”. Also, the IC50 in the experiment with 2774 ovary cancer cells was found to be 2.5 µM; in experiment [2] (48 hours), 3.3 µM. Besides, the “nuclear condensation and fragmentation (DAPI)” value in experiment [3] is on record as “largely showed nuclear fragmentation”. In addition, the “effect on MMP-3 mRNA expression level” value with MMP-3 mRNA expression was “intermediately”. In experiment [4] (three RAR subfamilies, as the concentration increased), the “retinoid receptor activity relative to ATRA and HPR” value is “about 50%”. Besides, the “number of viable cancer cells (microscopy)” value in [5] was “significant reductions in the number of viable cancer cells; also recorded: more effective on HCT116 than other derivatives”.

For phenyl butylate, the “acridine orange / ethidium bromide staining colour of cells” value in the experiment on cancer cells [6] was “cells remained normal green color”. Also, the “relative surviving cells (%)” value in [7] (SK-HEP-1, 0.5 μM) is 102%; in experiment [7] (SK-HEP-1, 1 μM), 103%; in [7] (SK-HEP-1, 5 μM) it was 95%; in experiment [7] (SK-HEP-1, 10 μM) it was 87%; in the experiment with DLD-1 colon cancer cells (DLD-1, 0.5 μM), 105%; with DLD-1 colon cancer cells (DLD-1, 1 μM) it was 103%. Also, the “relative surviving cells (%)” value in the experiment on DLD-1 colon cancer cells (DLD-1, 5 μM) worked out at 102%; in the experiment on DLD-1 colon cancer cells (DLD-1, 10 μM), 92%. The “nuclear condensation (DAPI)” value in experiment [3] was “nuclei were observed normal”.

For `CC1=C(/C=C/C(C)=C/C=C/C(C)=C/C(=O)Nc2ccc(O)cc2)C(C)(C)CCC1` [HPR, (2E,4E,6E,8E)-[3,7-dimethyl-9-(2,6,6-trimethylcyclohex-1-enyl)-nona-2,4,6,8-tetraenoylamino]-4-hydroxyphenylamide], the “relative surviving cells (%)” value in [7] (SK-HEP-1, 0.5 μM) was 90%; in [7] (SK-HEP-1, 1 μM), 73%; in [7] (SK-HEP-1, 5 μM), 45%; in experiment [7] (SK-HEP-1, 10 μM), 15%; in the experiment on DLD-1 colon cancer cells (DLD-1, 0.5 μM), 94%; with DLD-1 colon cancer cells (DLD-1, 1 μM), 85%. Further, the “relative surviving cells (%)” value with DLD-1 colon cancer cells (DLD-1, 5 μM) amounted to 63%; in the experiment on DLD-1 colon cancer cells (DLD-1, 10 μM) it was 28%. Also, the “relative rate of dead cells having a DNA content of 2N or less” value in the experiment with cancer cells [8] is reported as “much higher rates than other groups”. Besides, the half-inhibitory concentration (IC50) in the experiment with 2774 ovary cancer cells amounted to 30 µM; in experiment [2] (48 hours) it was 10 µM. Further, the “nuclear condensation and fragmentation (DAPI)” value in experiment [3] is reported as “largely showed nuclear fragmentation”.

`CCCC(=O)Oc1ccc(NC(=O)/C=C(C)/C=C/C=C(C)/C=C/C2=C(C)CCCC2(C)C)cc1` [KCBG60]: in the experiment on cancer cells [6], the “acridine orange / ethidium bromide staining colour of cells” value is “cells were stained with orange color”. Moreover, the “relative surviving cells (%)” value in experiment [7] (SK-HEP-1, 0.5 μM) is on record as 90%; in experiment [7] (SK-HEP-1, 1 μM), 75%; in [7] (SK-HEP-1, 5 μM), 48%; in experiment [7] (SK-HEP-1, 10 μM) it was 10%; with DLD-1 colon cancer cells (DLD-1, 0.5 μM), 95%; in the experiment with DLD-1 colon cancer cells (DLD-1, 1 μM) it was 85%. Further, the “relative surviving cells (%)” value in the experiment with DLD-1 colon cancer cells (DLD-1, 5 μM) was 60%; with DLD-1 colon cancer cells (DLD-1, 10 μM), 30%. The “relative rate of dead cells having a DNA content of 2N or less” value in the experiment on cancer cells [8] is reported as “much higher rates than other groups”. Also, the “nuclear condensation (DAPI)” value in [3] is recorded as “showed small spots, indicating nuclear condensation”.

With `CC1=C(/C=C/C(C)=C/C=C/C(C)=C/C(=O)O)C(C)(C)CCC1` [ATRA, All-trans-retinoic acid, reference compound], the IC50 with 2774 ovary cancer cells is over 100 µM; in experiment [2] (Homo sapiens, MDA-MB-231, 48 hours) it was over 100 µM.
